Assay results: patent publication US20130122098A1, “Method and composition to improve absorption of therapeutic agents” (Bayer HealthCare LLC, priority 2011, published 2013)

Tests used:
[1] = Particle size of milled aspirin by laser diffraction (MS 2000 Hydro S); type: physicochemical
Experimental: Several techniques were evaluated to determine the preferred type of milling techniques for use with aspirin in accordance with the invention. All sizes were determined using Laser Diffraction on a model MS 2000 Hydro S machine. The “d50” value is the average particle size of the milled sample, and “d90” represents the average particle size of at least 90% of the particles in the milled sample. Airjet, bead, and ball mill techniques were selected as being the most preferred in the invention because of the reliability of the techniques and the particle sizes obtained. Bead milling is less preferred because of its higher relative cost. The precipitation method and crystal synthesis also yielded small particle sizes but particles prepared using these techniques tended to agglomerate.

[2] = Compatibility: degradation products of aspirin/carbonate blends by HPLC; type: physicochemical
Experimental: The degradation products of various combinations of aspirin and various carbonates were determined for different combinations of aspirin and different grades and sources of carbonates to evaluate the compatibility and stability. Milling for about fifteen minutes appeared to slightly induce the production of free salicylic acid (FSA), but not to a significant extent. […] The results are shown in Table 3 (all blend percentages are weight percentages obtained using High Performance Liquid Chromatography (HPLC))

[3] = Air Jet Mill using helium as gas jet

CC(=O)Oc1ccccc1C(=O)O [aspirin]
Particle size of the milled aspirin, d90 ([1]; Air Jet Mill): < 10 μm
Particle size of the milled aspirin, d50 [1, 3]: < 2.6 μm
Particle size of the milled aspirin, d90 [1, 3]: < 6.6 μm
Particle size of the milled aspirin, d50 ([1]; Crystal Synthesis, no agglomeration): d50~30 μm and no agglomeration
Particle size of the milled aspirin, d50 ([1]; Crystal Synthesis, with agglomeration of milled particles): d50~5 to 10 μm, with agglomeration of milled particles
Particle size of the milled aspirin, d50 ([1]; High energy Ball Mill): d50~30-40 μm
Particle size of the milled aspirin, d50 ([1]; Planetary Ball Mill): d50~40 μm
Particle size of the milled aspirin, d50 ([1]; Precipitation Method (Solution: Ethanol + 20% ASA with 10% PVP)): d50~5 μm

CC(=O)Oc1ccccc1C(=O)O [100% Aspirin-Milled 15 min]
Acetyl Salicylic Salicylic Acid ASSA (%) [2]: 0.00%
FSA (%) (free salicylic acid) [2]: 0.00%
